Assay results published in patent publication US20110217309A1, “BIOLOGICAL MARKERS PREDICTIVE OF ANTI-CANCER RESPONSE TO INSULIN-LIKE GROWTH FACTOR-1 RECEPTOR KINASE INHIBITORS” (priority 2010, published 2011).

Key:
Type in all cases: cell-based, human
[1] = test system: OVCAR-4, SKOV-3, OVCAR-3, OVCAR-8, CaOV3-5, and IGROV-1; assay: Cell Titer Glo proliferation assay, K-RAS wild-type OvCa lines; conditions: other six OvCa cell lines of the panel, WT KRAS, 72 hours
Description: KRAS mutation status, as reported by the Sanger Wellcome Trust, is noted. Results shown are typical of three or more independent experiments. Grey symbols indicate data for K-RAS mutant (mt) cell lines OVCAR-5 and MDAH2774. Black symbols indicate data for K-RAS wild-type (wt) cell lines OVCAR-4, SKOV-3, OVCAR-3, OVCAR-8, CaOV3-5, and IGROV-1. Cell Lines and Culture. Human cancer cell lines, were obtained from American Type Culture Collection (ATCC, Manassas, Va.), or the following additional indicated sources, and cultured in media as described. […] The basis of the assay is a luminescent quantitation of ATP present in a cell culture plate well. […] The assay utilizes a substrate that binds ATP to produce a luminescent signal, which can be read on a luminometer. […] Results were calculated as a fraction of the DMSO controlled cells.

T47D = assay: Cell Titer Glo proliferation assay; conditions: T47D breast cancer, PIK3CA mutant
Description: (§1) Cell Lines and Culture. Human cancer cell lines, were obtained from American Type Culture Collection (ATCC, Manassas, Va.), or the following additional indicated sources, and cultured in media as described. Tumor types are also indicated: H295R (adrenocortical carcinoma; ATCC), NCI-[…], NCI-[…], SW1573 (NSCLC; ATCC), […], BxPC3 (pancreatic; ATCC), OVCAR5 (ovarian; NCI), MDAH-2774 (ovarian; ATCC), Igrov1 (ovarian; NCI), GEO (colon; Roswell Park Cancer Institute (RPCC)), HT-29 (colon; ATCC), RKO (colon; ATCC), […], 8226 (myeloma; ATCC), H929 (myeloma; ATCC), U266 (myeloma; ATCC), SKES1 (Ewings sarcoma; ATCC), RDES (Ewings sarcoma; ATCC), RD (rhabdomyosarcoma; ATCC), DU4475 (breast; ATCC), SKNAS (neuroblastoma; ATCC), 2650 (nasal SCC; ATCC), OVCAR4 (ovarian; NCI), A673 (Ewings sarcoma; ATCC), BT474 (breast; ATCC), 1386 (oral SCC; MSKCC, NY), 1186 (SCCHN; MSKCC, NY), Colo205 (colon; ATCC), HCT-15 (colon; ATCC), Fadu (oral SCC; ATCC), SKBR3 (breast; ATCC), 1483 (HNSCC; MSKCC, NY), HSC-2 (HNSCC; RIKEN BioResource Center, Tsukuba, Ibaraki, 305-0074, Japan), SKOV-3 (ovarian; ATCC), OVCAR-3 (ovarian; NCI), OVCAR-8 (ovarian; NCI), CaOV3 (ovarian; ATCC). […] The cells were routinely screened for the presence of mycoplasma (MycoAlert, Cambrex Bio Science, Baltimore, Md.). For growth inhibition assays, cells were plated and allowed to proliferate for 24 hours. […] Cell viability was assayed using the Cell Titer-Glo reagent (Promega Corp., Madison, Wis.). Proliferation Assay. […] The basis of the assay is a luminescent quantitation of ATP present in a cell culture plate well. In essence, the greater the number of viable cells in the well, the greater the level of ATP present. The assay utilizes a substrate that binds ATP to produce a luminescent signal, which can be read on a luminometer. Unless otherwise noted, the manufacturer's instructions were followed exactly. Briefly, on Day 1, cells were plated in 120 μl of 10% serum-containing growth media at a density of 4000 cells/well in a white polystyrene 96 well assay plate. […] After 72 h incubation with the inhibitor, the cells were assayed. Results were calculated as a fraction of the DMSO controlled cells.

HCC1954 = assay: Cell Titer Glo proliferation assay; conditions: HCC1954 breast cancer, PIK3CA mutant
Description: as §1

OVCAR4 = assay: Cell Titer Glo proliferation assay; conditions: OVCAR4, wild type KRAS
Description: as §1

MCF7 = assay: Cell Titer Glo proliferation assay; conditions: MCF7 breast cancer, PIK3CA mutant
Description: as §1

LS174T = assay: Cell Titer Glo proliferation assay; conditions: LS174T colon cancer, PIK3CA mutant
Description: as §1

BT20 = assay: Cell Titer Glo proliferation assay; conditions: BT20 breast cancer, PIK3CA mutant
Description: as §1

C[C@]1(O)C[C@@H](c2nc(-c3ccc4ccc(-c5ccccc5)nc4c3)c3c(N)nccn32)C1 [OSI-906, cis-3-[8-amino-1-(2-phenyl-quinolin-7-yl)-imidazo[1,5-a]pyrazin-3-yl]-1-methyl-cyclobutanol]
sensitivity of proliferation [1]: relatively insensitive
sensitivity to OSI-906 (T47D): insensitive (insensitive (EC50>10 μM))
sensitivity to OSI-906 (HCC1954): insensitive (insensitive (EC50>10 μM))
sensitivity to OSI-906 (OVCAR4): insensitive (insensitive (EC50>10 μM))
sensitivity to OSI-906 (MCF7): sensitive (sensitive (EC50<1 μM))
sensitivity to OSI-906 (LS174T): sensitive (sensitive (EC50<1 μM))
sensitivity to OSI-906 (BT20): insensitive (insensitive (EC50>10 μM))
